# Values of other authors, collected in patent US20050009922A1, “Stable aqueous antimicrobial suspension” (priority 2001, published 2005).
# Conditions: in water, 25° C., FIG. 1
compound,measurement,value
"N#CC(Br)(Br)C(N)=O [DBNPA, 2,2 dibromo 3-nitrilopropionamide]",pH of lowest rate of hydrolysis,< 4 pH
